# In patent US8541407B2 (ArQule, Inc., priority 2010, dated 2013):
# Counter-ions that a name gives are not always drawn.
# Target: AKT1 (Homo sapiens (Human), UniProt P31749)
# Assay: Inactive Akt Alpha Screen Assay
# Settings: non *labeled: Akt Alpha Screen assay; read-out: AKT1 biochemical assay, IC50
# Summary of the method: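 AKT1 activated in situ by PDK1, MAPKAPK2, lipid vesicles and ATP, then phosphorylating biotinylated crosstide for 30 min at room temperature. Stopped with 10 mM EDTA; phosphopeptide detected by AlphaScreen using phospho-AKT substrate antibody (1:350), Protein A acceptor and streptavidin donor beads, 90 min dark, ex 640/em 570 nm.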
# Chain of AKT1 (P31749 whole entry): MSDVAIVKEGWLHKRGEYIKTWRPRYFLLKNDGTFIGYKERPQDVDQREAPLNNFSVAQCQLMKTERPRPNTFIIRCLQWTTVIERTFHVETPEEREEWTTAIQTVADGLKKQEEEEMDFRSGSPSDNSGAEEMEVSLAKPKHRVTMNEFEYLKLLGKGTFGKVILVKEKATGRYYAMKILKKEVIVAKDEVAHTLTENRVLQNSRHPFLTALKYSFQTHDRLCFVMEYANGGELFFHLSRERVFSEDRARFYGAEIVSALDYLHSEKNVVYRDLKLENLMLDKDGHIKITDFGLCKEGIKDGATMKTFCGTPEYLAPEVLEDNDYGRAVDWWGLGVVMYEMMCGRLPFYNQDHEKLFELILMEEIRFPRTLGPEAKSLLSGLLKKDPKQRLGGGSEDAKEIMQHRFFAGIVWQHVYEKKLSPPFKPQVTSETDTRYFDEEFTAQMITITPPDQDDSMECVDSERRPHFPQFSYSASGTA
row,SMILES,IC50
1,"CC(C)CNCc1ccc(-c2nnc3n2-c2cccnc2Nc2ccccc2-3)cc1 [Example 71, N-(4-(9H-benzo[f]pyrido[2,3-b][1,2,4]triazolo[4,3-d][1,4]diazepin-3-yl)benzyl)-2-methylpropan-1-amine]",6.4 µM
2,"CC(=O)c1ccc(S(=O)(=O)NC2CCN(Cc3ccc(-c4nnc5n4-c4cccnc4Nc4ccccc4-5)cc3)CC2)cc1 [Example 155, N-(1-(4-(9H-benzo[f]pyrido[2,3-b][1,2,4]triazolo[4,3-d][1,4]diazepin-3-yl)benzyl)piperidin-4-yl)-4-acetylbenzenesulfonamide]",3.4 µM
3,"CC(=O)Nc1ccc(S(=O)(=O)NCc2ccc(-c3nnc4n3-c3cccnc3Nc3ccccc3-4)cc2)cc1 [Example 120, N-(4-(N-(4-(9H-benzo[f]pyrido[2,3-b][1,2,4]triazolo[4,3-d][1,4]diazepin-3-yl)benzyl)sulfamoyl)phenyl) acetamide]",0.14 µM
4,"Cc1ccc(-c2nnc3n2-c2cccnc2Nc2ccccc2-3)cc1 [Example 6, hydrochloride]",13 µM
5,"CC(C)(C)c1ccc(C(=O)Nc2ccc(-c3nnc4n3-c3cccnc3Nc3ccccc3-4)cc2)cc1 [Example 44, N-(4-(9H-benzo[f]pyrido[2,3-b][1,2,4]triazolo[4,3-d][1,4]diazepin-3-yl)phenyl)-4-(tert-butyl)benzamide]",0.23 µM
6,"COCC(=O)Nc1ccc(-c2nnc3n2-c2cccnc2Nc2ccccc2-3)cc1 [Example 53, N-(4-(9H-benzo[f]pyrido[2,3-b][1,2,4]triazolo[4,3-d][1,4]diazepin-3-yl)phenyl)-2-methoxyacetamide]",1.5 µM
7,c1coc(-c2nnc3n2-c2cccnc2Nc2ccccc2-3)c1 [Example 2],6.3 µM
8,"N#CC1(c2ccccc2)CCN(Cc2ccc(-c3nnc4n3-c3cccnc3Nc3ccccc3-4)cc2)CC1 [Example 163, 1-(4-(9H-benzo[f]pyrido[2,3-b][1,2,4]triazolo[4,3-d][1,4]diazepin-3-yl)benzyl)-4-phenylpiperidine-4-carbonitrile]",7.3 µM
9,"Cc1cccc(C(=O)N2CCN(Cc3ccc(-c4nnc5n4-c4cccnc4Nc4ccccc4-5)cc3)CC2)c1 [Example 136, (4-(4-(9H-benzo[f]pyrido[2,3-b][1,2,4]triazolo[4,3-d][1,4]diazepin-3-yl)benzyl)piperazin-1-yl)(m-tolyl)methanone]",1.3 µM
10,"Cc1cccc(S(=O)(=O)NC2(c3ccc(-c4nnc5n4-c4cccnc4Nc4ccccc4-5)cc3)CCC2)c1 [Example 199, N-(1-(4-(9H-benzo[f]pyrido[2,3-b][1,2,4]triazolo[4,3-d][1,4]diazepin-3-yl)phenyl)cyclobutyl)-3-methylbenzenesulfonamide]",0.46 µM
11,"COc1ccc(S(=O)(=O)NCCc2ccc(-c3nnc4n3-c3cccnc3Nc3ccccc3-4)cc2)cc1 [Example 109, N-(4-(9H-benzo[f]pyrido[2,3-b][1,2,4]triazolo[4,3-d][1,4]diazepin-3-yl)phenethyl)-4-methoxybenzenesulfonamide]",9.1 µM
12,"O=S(=O)(NC1(c2ccc(-c3nnc4n3-c3cccnc3Nc3ccccc3-4)cc2)CCC1)c1cccc(F)c1 [Example 204, N-(1-(4-(9H-benzo[f]pyrido[2,3-b][1,2,4]triazolo[4,3-d][1,4]diazepin-3-yl)phenyl)cyclobutyl)-3-fluorobenzenesulfonamide]",0.76 µM
13,"COc1ccccc1NC(=O)NC1CCN(Cc2ccc(-c3nnc4n3-c3cccnc3Nc3ccccc3-4)cc2)CC1 [Example 183, 1-(1-(4-(9H-benzo[f]pyrido[2,3-b][1,2,4]triazolo[4,3-d][1,4]diazepin-3-yl)benzyl)piperidin-4-yl)-3-(2-methoxyphenyl)urea]",0.7 µM
14,"CCN(CC)C(=O)C1CCCN(Cc2ccc(-c3nnc4n3-c3cccnc3Nc3ccccc3-4)cc2)C1 (stereo not shown) [Example 81, 1-(4-(9H-benzo[f]pyrido[2,3-b][1,2,4]triazolo[4,3-d][1,4]diazepin-3-yl)benzyl)-N,N-diethylpiperidine-3-carboxamide]",4.8 µM
15,"O=C(Nc1ccc(-c2nnc3n2-c2cccnc2Nc2ccccc2-3)cc1)c1cc2ccccc2s1 [Example 42, N-(4-(9H-benzo[f]pyrido[2,3-b][1,2,4]triazolo[4,3-d][1,4]diazepin-3-yl)phenyl)benzo[b]thiophene-2-carboxamide]",0.36 µM
16,"c1ccc(CNCc2ccc(-c3nnc4n3-c3cccnc3Nc3ccccc3-4)cc2)cc1 [Example 66, N-(4-(9H-benzo[f]pyrido[2,3-b][1,2,4]triazolo[4,3-d][1,4]diazepin-3-yl)benzyl)-1-phenylmethanamine]",1.9 µM
17,"COc1ccc(C(=O)N2CCN(Cc3ccc(-c4nnc5n4-c4cccnc4Nc4ccccc4-5)cc3)CC2)cc1 [Example 137, (4-(4-(9H-benzo[f]pyrido[2,3-b][1,2,4]triazolo[4,3-d][1,4]diazepin-3-yl)benzyl)piperazin-1-yl)(4-methoxyphenyl)methanone]",1.4 µM
18,"O=C(CCc1ccccc1)N1CCN(Cc2ccc(-c3nnc4n3-c3cccnc3Nc3ccccc3-4)cc2)CC1 [Example 135, 1-(4-(4-(9H-benzo[f]pyrido[2,3-b][1,2,4]triazolo[4,3-d][1,4]diazepin-3-yl)benzyl)piperazin-1-yl)-3-phenylpropan-1-one]",3.4 µM
19,"O=C(Nc1cccc(Cl)c1)NC1CCN(Cc2ccc(-c3nnc4n3-c3cccnc3Nc3ccccc3-4)cc2)CC1 [Example 176, 1-(1-(4-(9H-benzo[f]pyrido[2,3-b][1,2,4]triazolo[4,3-d][1,4]diazepin-3-yl)benzyl)piperidin-4-yl)-3-(3-chlorophenyl)urea]",1.2 µM
20,"Cc1cccc(NC(=O)NCc2ccc(-c3nnc4n3-c3cccnc3Nc3ccccc3-4)cc2)c1 [Example 125, 1-(4-(9H-benzo[f]pyrido[2,3-b][1,2,4]triazolo[4,3-d][1,4]diazepin-3-yl)benzyl)-3-(m-tolyl)urea]",0.48 µM
21,"O=C(NCc1ccc(-c2nnc3n2-c2cccnc2Nc2ccccc2-3)cc1)c1ccccc1 [Example 99, N-(4-(9H-benzo[f]pyrido[2,3-b][1,2,4]triazolo[4,3-d][1,4]diazepin-3-yl)benzyl)benzamide]",0.2 µM
22,"OCC1CCN(Cc2ccc(-c3nnc4n3-c3cccnc3Nc3ccccc3-4)cc2)CC1 [Example 76, (1-(4-(9H-benzo[f]pyrido[2,3-b][1,2,4]triazolo[4,3-d][1,4]diazepin-3-yl)benzyl)piperidin-4-yl)methanol]",8.3 µM
23,"CCOC(=O)N1CCC(NCc2ccc(-c3nnc4n3-c3cccnc3Nc3ccccc3-4)cc2)CC1 [Example 89, ethyl 4-((4-(9H-benzo[f]pyrido[2,3-b][1,2,4]triazolo[4,3-d][1,4]diazepin-3-yl)benzyl)amino)piperidine-1-carboxylate]",2.3 µM
24,"COC(=O)c1sccc1S(=O)(=O)NC1CCN(Cc2ccc(-c3nnc4n3-c3cccnc3Nc3ccccc3-4)cc2)CC1 [Example 145, methyl 3-(N-(1-(4-(9H-benzo[f]pyrido[2,3-b][1,2,4]triazolo[4,3-d][1,4]diazepin-3-yl)benzyl)piperidin-4-yl)sulfamoyl)thiophene-2-carboxylate]",0.79 µM
25,"CC(C)(C)OC(=O)NC1CCN(Cc2ccc(-c3nnc4n3-c3cccnc3Nc3ccccc3-4)cc2)CC1 [Example 201, tert-butyl (1-(4-(9H-benzo[f]pyrido[2,3-b][1,2,4]triazolo[4,3-d][1,4]diazepin-3-yl)benzyl)piperidin-4-yl)carbamate]",1.9 µM
